Source: patent US4442031A, “Immunopotentiating peptides” (Hoffmann-La Roche Inc., priority 1983, dated 1984)
Where no end group is shown, it is not given here.

Tests used:
[1] = system: P388 leukemia; experiment: Protective activity against P388 leukemia growth in 5-FU immunosuppressed mice; assay type: in vivo; conditions: for Mean Survival days (days ± S.D.): CDF1 mice, 5-FU +, P388 +, 5-FU + saline 4.1
Procedure: The treatment with cytostatic agents often decreases immunocompetence and consequently increases incidence of metastasis of tumor in cancer patients. […] In the experiment shown in Table 10, male CDF1 mice (6 week old) were treated daily for 8 times with or without 5-FU (28 mg/kg/day ip.) and then transplanted subcutaneously with P388 leukemic cells (3×10^5) into footpad 24 hours later. When pretreated with 5-FU, mice died very quickly at 4 days, while normal mice survived about 23 days after the transplant. […] Thymosin α1 and compound A may improve the immunodefense system against metastatic tumor growth in cancer patients who are receiving immunosuppressive chemotherapy. In combination with thymosin α1 or compound A, more extensive cancer chemotherapy for a longer duration may be possible.
^(1) CDF1 mice were pretreated daily for 8 times from Day 8 to
with 5FU (28 mg/kg/day, ip.).
^(2) Thymosin α1 or Compound A were administered daily for
14 times from Day 8 to 5 by ip. route.
^(3) P388 leukemic cells (3 × 10^5) were inoculated into
^(4) Survival days after the inoculation of the leukemic cells.

[2] = system: delayed-type hypersensitivity (DTH); experiment: Restoration of delayed-type hypersensitivity (DTH) decreased by 5-FU in BDF1 mice; assay type: in vivo; conditions: for DTH response %: % of control
Procedure: A poor prognosis is often observed in cancer patients with impaired immune response. Impaired immune response can be caused by the cancer itself, by chemotherapeutic agents, or by radiotherapy. Thus, therapeutic agents which restore impaired immune response in cancer patients are expected to play an important role in combination therapy. The restoration activity of the compounds of the invention on impaired cell-mediated immunity was determined by measuring the enhancement of delayed-type hypersensitivity (DTH), which was decreased to a great extent in mice treated with 5-fluorouracil (5-FU).
Female BDF1 mice (20-22 g, 11-12 weeks old) received (i.p. or p.o.) the compound to be tested on consecutive days one day before, concurrently with and 1 and 2 days after the 5-FU treatment. For DTH measurement, 10^8 chicken red blood cells (CRBC) were injected i.p. (or s.c. into the left hind footpad) and challenged s.c. into the right hind footpad at 3 and 7 days after the 5-FU treatment, respectively. Restoration activity was calculated by the following formula from the DTH response observed in the control group, 5-FU treated group treatment and the Test group treated both with 5-FU and the compound of the invention. Restoration activity was calculated by the formula: [formula]

[3] = system: Listeria monocytogenes EGD; experiment: Protection against Listeria monocytogenes infection in 5-FU immunosuppressed mice; assay type: in vivo; conditions: for Survivors at Day 15 after infection: Table 8, i.p., 5-FU immunosuppressed mice, control 2/10
Procedure: (§1) Normal mice (female ddY mice, 6 weeks old) were highly tolerant to infection with Candida albicans ATCC 10231 at relatively low dose (1-2×10^5 cells, iv.). However, when pretreated daily for ten times with 5-FU (25 mg/kg/day, ip.), the mice were susceptible to infection as shown in Table 6. […] Compound A was also shown to be active against infection with Pseudomonas aeruginosa 5E81-1 and Listeria monocytogenes EGD in the immunosuppressed mice (see Tables 7 and 8).

[4] = system: Pseudomonas aeruginosa 5E81-1; experiment: Protection against Pseudomonas aeruginosa infection in 5-FU immunosuppressed mice; assay type: in vivo; conditions: for Survivors at Day 15 after infection: Table 7, i.p., 5-FU immunosuppressed mice, control 0/30
Procedure: as §1

[5] = system: Listeria monocytogenes EGD; experiment: Growth of Listeria monocytogenes in liver of P388 tumor-bearing mice; assay type: in vivo; conditions: for Growth of Bacteria (log10 /liver): Tumor-bearing CDF1 mice, i.p., seven times before infection, 3 days after infection, control 7.1
From the text: The immunocompetence of tumor-bearing mice is known to be frequently deficient. This is illustrated by the fact that Listeria monocytogenes EGD grew considerably in tumor-bearing mice as compared to normal mice (see Table 9). Male CDF1 mice (6 weeks old) transplanted with P388 leukemia (3×10^5 cells, footpad) were infected with Listeria monocytogenes (2×10^3 cells, iv.) 7 days after the transplant. Three days thereafter the number of the bacteria grown in liver was counted.

[6] = Restoration of thymus weight decreased by 5-FU injection; assay type: in vivo, mice; conditions: for Av. thymus weight mg: 8 days after 5-FU, control 39.4, 5-FU alone 23.4; for Av. thymus weight %: % of control
Procedure: It is known that anticancer drugs suppress immunological functions by affecting immunocytes. The thymus gland, which is essential for differentiation, maturation and supply to T-cells responsible for immunological reactions, decreases markedly in weight after injection of 5-FU. […] FIfty μg/kg of Compound A administered orally was as effective as 5 μg/kg of thymosin α1 injected intraperitoneally, when the thymus weight was measured immediately after the DTH measurement at 8 days after the 5-FU injection (see Table 5).
*Seven mice per group received the test compound one day before,
concurrently with, and 1 and 2 days after 5FU injection i.p. (100 mg/kg).
The mice were injected CRBC for The DTH assay at 3 and 7 days after the
The thymus weight was measured at 8 days after the 5FU injection.

[7] = Table 2, 5-FU plus 0.05 μg/kg/day, i.p.
[8] = Table 2, 5-FU plus 0.5 μg/kg/day, i.p.
[9] = Table 2, 5-FU plus 5.0 μg/kg/day, i.p.
[10] = Table 3, second experiment, 5-FU plus 0.5 μg/kg/day, i.p.
[11] = Table 4, 5-FU plus 0.5 μg/kg/day p.o.
[12] = Table 4, 5-FU plus 5.0 μg/kg/day p.o.
[13] = Table 4, 5-FU plus 50.0 μg/kg/day p.o.

In the case of “KKEVVE [Compound A, L-Lysyl-L-lysyl-L-glutamyl-L-valyl-L-valyl-L-glutamic acid]”, the “Mean Survival days (days ± S.D.)” value ([1]; 0.4 μg/kg/day ip. 14 times) is reported as 22.3 ± 2.8 days, the “Mean Survival days (days ± S.D.)” value ([1]; 4 μg/kg/day ip. 14 times) is reported as 23.7 ± 2.9 days and the “survival days (in words)” value ([1]; daily treatment in addition to 5-FU, 8 times before and 6 times after the transplant) is reported as “increased the survival days to the level similar to that obtained in normal mice”. For the same substance, the “Restoration Activity(%)” value [2, 7] was 34.4%, the DTH response % [2, 7] was 70.7% and the “DTH response av. ± S.E. (0.1 mm)” value ([2]; Table 2, 5-FU plus 0.05 μg/kg/day, i.p., control 10.3, 5-FU alone 5.7) was 7.3 ± 0.9 0.1 mm. The “Restoration Activity(%)” value [2, 8] was 66.6%, the DTH response % [2, 8] was 84.8% and the “DTH response av. ± S.E. (0.1 mm)” value ([2]; Table 2, 5-FU plus 0.5 μg/kg/day, i.p., control 10.3, 5-FU alone 5.7) was 8.7 ± 1.2 0.1 mm. For the same substance, the “Restoration Activity(%)” value [2, 9] was 56.6%, the DTH response % [2, 9] was 80.7% and the “DTH response av. ± S.E. (0.1 mm)” value ([2]; Table 2, 5-FU plus 5.0 μg/kg/day, i.p., control 10.3, 5-FU alone 5.7) was 8.3 ± 0.8 0.1 mm. For the same substance, the “DTH response av. ± S.E. (0.1 mm)” value ([2]; Table 3, second experiment (control 15.1, 5-FU alone 8.1), 5-FU plus 0.5 μg/kg/day, i.p.) was 10.8 ± 0.8 0.1 mm, the “Restoration Activity(%)” value [2, 10] was 39.1% and the DTH response % [2, 10] was 71.6%. The “DTH response av. ± S.E. (0.1 mm)” value ([2]; Table 4 (control 7.7, 5-FU alone 5.6), 5-FU plus 0.5 μg/kg/day p.o.) was 5.4 ± 0.9 0.1 mm, the “DTH response av. ± S.E. (0.1 mm)” value ([2]; Table 4 (control 7.7, 5-FU alone 5.6), 5-FU plus 5.0 μg/kg/day p.o.) was 5.9 ± 1.0 0.1 mm and the “DTH response av. ± S.E. (0.1 mm)” value ([2]; Table 4 (control 7.7, 5-FU alone 5.6), 5-FU plus 50.0 μg/kg/day p.o.) was 8.7 ± 1.2 0.1 mm. For the same substance, the “Restoration Activity(%)” value [2, 11] was 0%, the DTH response % [2, 11] was 70.1% and the “Restoration Activity(%)” value [2, 12] was 14.3%. For the same substance, the DTH response % [2, 12] was 76.6%, the “Restoration Activity(%)” value [2, 13] was 147.6% and the DTH response % [2, 13] was 113%. The “DTH restoration activity (in words)” value ([2]; administered orally, Table 4) was “active when administered orally”, the “DTH restoration activity (in words)” value ([2]; i.p., Tables 2 and 3) was “equal or in some instances, greater activity than did thymosin α1 at lower doses” and the “Survivors at Day 15 after infection” value ([3]; 0.04 μg/kg/day) was 8/10. The “Survivors at Day 15 after infection” value ([3]; 0.4 μg/kg/day) was 6/10, the “Survivors at Day 15 after infection” value ([3]; 4 μg/kg/day) was 6/10 and the “activity against infection (in words)” value ([3]; immunosuppressed mice) was “active”. The “Survivors at Day 15 after infection” value ([4]; 0.04 μg/kg/day) was 5/20, the “Survivors at Day 15 after infection” value ([4]; 0.4 μg/kg/day) was 12/30 and the “Survivors at Day 15 after infection” value ([4]; 4 μg/kg/day) was 7/30. The “activity against infection (in words)” value ([4]; immunosuppressed mice) was “active”, the “Growth of Bacteria (log10 /liver)” value ([5]; 0.4 μg/kg/day) was 6.0 log10 /liver and the “Growth of Bacteria (log10 /liver)” value ([5]; 4 μg/kg/day) was 5.7 log10 /liver. The “growth of the bacteria in liver (in words)” value ([5]; tumor-bearing mice pretreated daily for seven times before infection) was “growth of the bacteria was suppressed”, the “restoration of thymus weight (in words)” value ([6]; 50 μg/kg orally, one day before, concurrently with, and 1 and 2 days after 5-FU (100 mg/kg)) was “restore the decreased thymus weight” and the “Av. thymus weight mg” value ([6]; 5-FU (100 mg/kg i.p.) plus 5.0 μg/kg/day p.o.) was 23.0 ± 1.6 mg. The “Av. thymus weight mg” value ([6]; 5-FU (100 mg/kg i.p.) plus 50.0 μg/kg/day p.o.) was 26.6 ± 1.0 mg, the “Av. thymus weight %” value ([6]; 5-FU plus 5.0 μg/kg/day p.o.) was 58.4% and the “Av. thymus weight %” value ([6]; 5-FU plus 50.0 μg/kg/day p.o.) was 67.5%. For the same substance, the “Restoration Activity(%)” value ([6]; thymus weight, 5-FU plus 50.0 μg/kg/day p.o.) was 20.0%.
